Laboratory results as given in patent US20110281869A1, “TETRAHYDROISOQUINOLINES AS ANTIMALARIAL AGENTS” (priority 2008, published 2011).

System: P. falciparum K1
Test: Plasmodium falciparum in vitro assay ([3H] hypoxanthine incorporation)
Format: cell-based
Conditions: Plasmodium falciparum; erythrocytic stages, strain K1 resistant to chloroquine and pyrimethamine, human red cells; read-out: IC50 (nM) on K1
Method: In vitro antimalarial activity: Plasmodium falciparum in vitro assay In vitro activity against erythrocytic stages of P. falciparum is determined using a [^3H] hypoxanthine incorporation assay. One strain resistant to chloroquine and pyrimethamine (P. falciparum K1) is used in the assays, and all test compounds are compared for activity with the standard drugs chloroquine (sigma C6628) and artemisinin (sigma-36, 159-3). Compounds are diluted in DMSO to 1 mM and added to parasite cultures incubated in RPMI 1640 medium without hypoxanthine, supplemented with HEPES (5.94 g/L), NaHCO3 (2.1 g/L), neomycin (100 U/mL), Albumax (5 g/L) and washed human red cells at 2.5% hematocrit (0.3% parasitaemia). Seven serial doubling dilutions of each drug are prepared in 96-well microtitre plates and incubated in a humidifying atmosphere at 37° C.; 4% CO2, 3% O2, 93% N2.
After 48 h, 50 μl of [^3H] hypoxanthine (0.5 μCi) is added to each well of a plate. The plates are incubated for a further 24 h under the same conditions. The plates are then harvested with a Betaplate cell harvester (Wallac) and washed with distilled water. The dried filters are inserted into a plastic foil with 10 mL of scintillation fluid, and counted in a Betaplate liquid scintillation counter. IC50 values are calculated from sigmoidal inhibition curves using Microsoft Excel.

SMILES | IC50
O=C([C@H](Cc1ccccc1)N(Cc1ccc(-c2ccccn2)cc1)C(=O)C=Cc1ccc(C(F)(F)F)cc1)N1CCc2c(F)cccc2C1 [Example 74, (S)—N-[1-Benzyl-2-(5-fluoro-3,4-dihydro-1H-isoquinolin-2-yl)-2-oxo-ethyl]-N-(4-pyridin-2-yl-benzyl)-3-(4-trifluoromethyl-phenyl)-acrylamide] | 11 nM
Cc1c(C=CC(=O)N(Cc2ccc(-c3ncccn3)cc2)[C@@H](Cc2ccccc2)C(=O)N2CCc3ccccc3C2)cnn1C [Example 99, (S)—N-[1-Benzyl-2-(3,4-dihydro-1H-isoquinolin-2-yl)-2-oxo-ethyl]-3-(1,5-dimethyl-1H-pyrazol-4-yl)-N-(4-pyrimidin-2-yl-benzyl)-acrylamide] | 29 nM
Cc1ncsc1C=CC(=O)N(Cc1ccc(-c2ncccn2)cc1)[C@@H](Cc1ccccc1)C(=O)N1CCc2ccccc2C1 [Example 104, (S)—N-[1-Benzyl-2-(3,4-dihydro-1H-isoquinolin-2-yl)-2-oxo-ethyl]-3-(4-methyl-thiazol-5-yl)-N-(4-pyrimidin-2-yl-benzyl)-acrylamide] | 84 nM
Cc1nn(C)c(C)c1C=CC(=O)N(Cc1ccc(-c2cnccn2)cc1)[C@@H](Cc1ccccc1)C(=O)N1CCc2ccccc2C1 [Example 119, (S)—N-[1-Benzyl-2-(3,4-dihydro-1H-isoquinolin-2-yl)-2-oxo-ethyl]-N-(4-pyrazin-2-yl-benzyl)-3-(1,3,5-trimethyl-1H-pyrazol-4-yl)-acrylamide] | 5 nM
Cc1nc(C)c(C=CC(=O)N(Cc2ccc(-c3cccnn3)cc2)[C@@H](Cc2ccccc2)C(=O)N2CCc3ccccc3C2)s1 [Example 145, (S)—N-[1-Benzyl-2-(3,4-dihydro-1H-isoquinolin-2-yl)-2-oxo-ethyl]-3-(2,4-dimethyl-thiazol-5-yl)-N-(4-pyridazin-3-yl-benzyl)-acrylamide] | 13 nM
Cc1nn(C)c(C)c1C=CC(=O)N(Cc1ccc(-n2ccnn2)cc1)[C@@H](Cc1ccccc1)C(=O)N1CCc2ccccc2C1 [Example 157, (S)—N-[1-Benzyl-2-(3,4-dihydro-1H-isoquinolin-2-yl)-2-oxo-ethyl]-N-(4-[1,2,3]-triazol-1-yl-benzyl)-3-(1,3,5-trimethyl-1H-pyrazol-4-yl)-acrylamide] | 2 nM
Cn1cc(C=CC(=O)N(Cc2ccc(-n3cncn3)cc2)[C@@H](Cc2ccccc2)C(=O)N2CCc3ccccc3C2)cn1 [Example 172, (S)—N-[1-Benzyl-2-(3,4-dihydro-1H-isoquinolin-2-yl)-2-oxo-ethyl]-3-(1-methyl-1H-pyrazol-4-yl)-N-(4-[1,2,4]-triazol-1-yl-benzyl)-acrylamide] | 25 nM
Cc1ncsc1C=CC(=O)N(Cc1ccc(-n2cncn2)cc1)[C@@H](Cc1ccccc1)C(=O)N1CCc2ccccc2C1 [Example 178, (S)—N-[1-Benzyl-2-(3,4-dihydro-1H-isoquinolin-2-yl)-2-oxo-ethyl]-3-(4-methyl-thiazol-5-yl)-N-(4-[1,2,4]-triazol-1-yl-benzyl)-acrylamide] | 28 nM
CN1CCN(c2ccc(CN(C(=O)C=Cc3ccc(C(F)(F)F)cn3)[C@@H](Cc3ccccc3)C(=O)N3CCc4ccccc4C3)cc2)CC1 [Example 211, (S)—N-[1-Benzyl-2-(3,4-dihydro-1H-isoquinolin-2-yl)-2-oxo-ethyl]-N-[4-(4-methyl-piperazin-1-yl)-benzyl]-3-(5-trifluoromethyl-pyridin-2-yl)-acrylamide] | 82 nM
Cc1ccc(C=CC(=O)N(Cc2ccc(N3CCOCC3)cc2)[C@@H](Cc2ccccc2)C(=O)N2CCc3ccccc3C2)cn1 [Example 218, (S)—N-[1-Benzyl-2-(3,4-dihydro-1H-isoquinolin-2-yl)-2-oxo-ethyl]-3-(6-methyl-pyridin-3-yl)-N-(4-morpholin-4-yl-benzyl)-acrylamide] | 31 nM
COc1ccc(C=CC(=O)N(Cc2ccc(N3CCOCC3)cc2)[C@@H](Cc2ccccc2)C(=O)N2CCc3ccccc3C2)cn1 [Example 220, (S)—N-[1-Benzyl-2-(3,4-dihydro-1H-isoquinolin-2-yl)-2-oxo-ethyl]-3-(6-methoxy-pyridin-3-yl)-N-(4-morpholin-4-yl-benzyl)-acrylamide] | 10 nM
Cc1noc(C)c1C=CC(=O)N(Cc1ccc(N2CCOCC2)cc1)[C@@H](Cc1ccccc1)C(=O)N1CCc2ccccc2C1 [Example 224, (S)—N-[1-Benzyl-2-(3,4-dihydro-1H-isoquinolin-2-yl)-2-oxo-ethyl]-3-(3,5-dimethyl-isoxazol-4-yl)-N-(4-morpholin-4-yl-benzyl)-acrylamide] | 18 nM

Further lines, results first:

IC50 | SMILES
52 nM | O=C([C@H](Cc1ccccc1)N(Cc1ccc(-c2ccccn2)cc1)C(=O)C=Cc1ccc(C(F)(F)F)nc1)N1CCc2cc(F)ccc2C1 [Example 78, (S)—N-[1-Benzyl-2-(6-fluoro-3,4-dihydro-1H-isoquinolin-2-yl)-2-oxo-ethyl]-N-(4-pyridin-2-yl-benzyl)-3-(6-trifluoromethyl-pyridin-3-yl)-acrylamide]
19 nM | COc1ccc(C=CC(=O)N(Cc2ccc(-c3ncccn3)cc2)[C@@H](Cc2ccccc2)C(=O)N2CCc3ccccc3C2)cn1 [Example 93, (S)—N-[1-Benzyl-2-(3,4-dihydro-1H-isoquinolin-2-yl)-2-oxo-ethyl]-3-(6-methoxy-pyridin-3-yl)-N-(4-pyrimidin-2-yl-benzyl)-acrylamide]
35 nM | O=C([C@H](Cc1ccccc1)N(Cc1ccc(-c2cnccn2)cc1)C(=O)C=Cc1ccc(Cl)nc1)N1CCc2ccccc2C1 [Example 111, (S)—N-[1-Benzyl-2-(3,4-dihydro-1H-isoquinolin-2-yl)-2-oxo-ethyl]-3-(6-chloro-pyridin-3-yl)-N-(4-pyrazin-2-yl-benzyl)-acrylamide]
63 nM | COc1ncc(C=CC(=O)N(Cc2ccc(-c3cnccn3)cc2)[C@@H](Cc2ccccc2)C(=O)N2CCc3ccccc3C2)cn1 [Example 114, (S)—N-[1-Benzyl-2-(3,4-dihydro-1H-isoquinolin-2-yl)-2-oxo-ethyl]-3-(2-methoxy-pyrimidin-5-yl)-N-(4-pyrazin-2-yl-benzyl)-acrylamide]
67 nM | Cn1cc(C=CC(=O)N(Cc2ccc(-c3cnccn3)cc2)[C@@H](Cc2ccccc2)C(=O)N2CCc3ccccc3C2)cn1 [Example 116, (S)—N-[1-Benzyl-2-(3,4-dihydro-1H-isoquinolin-2-yl)-2-oxo-ethyl]-3-(1-methyl-1H-pyrazol-4-yl)-N-(4-pyrazin-2-yl-benzyl)-acrylamide]
8 nM | O=C([C@H](Cc1ccccc1)N(Cc1ccc(-n2cncn2)cc1)C(=O)C=Cc1ccc(Cl)nc1)N1CCc2ccccc2C1 [Example 167, (S)—N-[1-Benzyl-2-(3,4-dihydro-1H-isoquinolin-2-yl)-2-oxo-ethyl]-3-(6-chloro-pyridin-3-yl)-N-(4-[1,2,4]-triazol-1-yl-benzyl)-acrylamide]
4 nM | O=C([C@H](Cc1ccccc1)N(Cc1ccc(-c2nccs2)cc1)C(=O)C=Cc1ccc(C(F)(F)F)cc1)N1CCc2ccccc2C1 [Example 199, (S)—N-[1-Benzyl-2-(3,4-dihydro-1H-isoquinolin-2-yl)-2-oxo-ethyl]-N-(4-thiazol-2-yl-benzyl)-3-(4-trifluoromethyl-phenyl)-acrylamide]
8.5 nM | O=C([C@H](Cc1ccccc1)N(Cc1ccc(-c2cncnc2)cc1)C(=O)C=Cc1ccc(Cl)nc1)N1CCc2ccccc2C1 [Example 228, (S)—N-[1-Benzyl-2-(3,4-dihydro-1H-isoquinolin-2-yl)-2-oxo-ethyl]-3-(6-chloro-pyridin-3-yl)-N-(4-pyrimidin-5-yl-benzyl)-acrylamide]
26 nM | Cc1noc(C)c1C=CC(=O)N(Cc1ccc(-c2cncnc2)cc1)[C@@H](Cc1ccccc1)C(=O)N1CCc2ccccc2C1 [Example 235, (S)—N-[1-Benzyl-2-(3,4-dihydro-1H-isoquinolin-2-yl)-2-oxo-ethyl]-3-(3,5-dimethyl-isoxazol-4-yl)-N-(4-pyrimidin-5-yl-benzyl)-acrylamide]
9 nM | COc1ccc(C=CC(=O)N(Cc2ccc(-c3ccncc3)cc2)[C@@H](Cc2ccccc2)C(=O)N2CCc3ccccc3C2)nn1 [Example 239, (S)—N-[1-Benzyl-2-(3,4-dihydro-1H-isoquinolin-2-yl)-2-oxo-ethyl]-3-(6-methoxy-pyridazin-3-yl)-N-(4-pyridin-4-yl-benzyl)-acrylamide]
5 nM | Cc1noc(C)c1C=CC(=O)N(Cc1ccc(-c2ccncc2)cc1)[C@@H](Cc1ccccc1)C(=O)N1CCc2ccccc2C1 [Example 241, (S)—N-[1-Benzyl-2-(3,4-dihydro-1H-isoquinolin-2-yl)-2-oxo-ethyl]-3-(3,5-dimethyl-isoxazol-4-yl)-N-(4-pyridin-4-yl-benzyl)-acrylamide]
< 7.8 nM | Cn1ccc(C=CC(=O)N(Cc2ccc(-c3ccncc3)cc2)[C@@H](Cc2ccccc2)C(=O)N2CCc3ccccc3C2)n1 [Example 243, (S)—N-[1-Benzyl-2-(3,4-dihydro-1H-isoquinolin-2-yl)-2-oxo-ethyl]-3-(1-methyl-1H-pyrazol-3-yl)-N-(4-pyridin-4-yl-benzyl)-acrylamide]
17 nM | Cc1ncc(C=CC(=O)N(Cc2ccc(-c3ccncc3)cc2)[C@@H](Cc2ccccc2)C(=O)N2CCc3ccccc3C2)n1C [Example 246, (S)—N-[1-Benzyl-2-(3,4-dihydro-1H-isoquinolin-2-yl)-2-oxo-ethyl]-3-(2,3-dimethyl-3H-imidazol-4-yl)-N-(4-pyridin-4-yl-benzyl)-acrylamide]
